Measured values reported in patent publication US4147869A, “3,4-Dihydrocarbostyril derivatives and process for preparing the same” (Otsuka Pharmaceutical Co., Ltd., priority 1976, dated 1979).
Counter-ions that a name gives are not always drawn. Like-named read-outs stand apart in the source and are kept apart here.

What was measured:
[1] = test system: β-adrenoreceptor; assay: β-adrenergic blocking activity in anesthetized dogs: antagonism (Inhibition %) of isoprenaline-induced responses; format: in vivo, dog; conditions: 300 μg/kg i.v., 10 minutes after; for Inhibition (%) dBP (antagonism to the depression of diastolic blood pressure induced by isoprenaline) / Inhibition (%) HR (antagonism to the increase in heart rate induced by isoprenaline): isoprenaline 1 μg/kg i.v.; for Inhibition (%) AR (antagonism to the depression by isoprenaline in increase of air-way resistance induced by histamine): isoprenaline 1 μg/kg, histamine 5 μg/kg i.v.
Method: The β-adrenergic blocking activity of the compounds of this invention was determined as follows:
Male hybrid adult dogs, weighing 10 to 16 kg, were anesthesized with sodium pentobarbital administered intravenously at a level of 30 mg/kg of body weight, and a cannula was inserted into the trachea of each of the anesthesized dogs. In order to avoid blood coagulation, heparin was administered intravenously at a level of 1000 units and thereafter a cannula was inserted into the right femoral artery. The experiments were conducted under artificial respiration at a rate of 20 ml/kg, 18 r.p.m.
The above parameters were continuously recorded on a polygraph (8S 28 Type, tradename of Sanei Sokki Co., Japan). During the experiment, gallamine was administered intravenously at a dosage of 3 mg/kg at one-hour intervals to avoid fluctuation of air-way resistance.
The β-adrenergic blocking activity of each of the test compounds was evaluated in terms of antagonism (Inhibition %) to the depression at the diastolic blood pressure (dBP) and to the increase in the heart rate induced by the intravenous administration of isoprenaline (1 μg/kg) and in terms of antagonism (Inhibition %) to the depression by isoprenaline in increase of air-way resistance which was induced by intravenous administration of histamine (5 μg/kg). In this case, histamine was administered 45 seconds after the administration of isoprenaline.

[2] = acute toxicity (LD50) by intravenous and oral administration; conditions: rat, in vivo, fasted 12 hours
Method: Further, the acute toxicity of the compounds of the present invention having the formula (I) was determined by intravenous administration (i.v.) and oral administration (p.o.) in 5 to 6 groups of […] (dd strain; body weight, 18 to 22 g; 10 rats in each group) which have been fasted for 12 hours prior to the test.

[3] = iv, male rats, i.v., read-out: LD50 i.v.
[4] = po, male rats, p.o., read-out: LD50 p.o.

SMILES | Inhibition (%) dBP (antagonism to the depression of diastolic blood pressure induced by isoprenaline) [1] [%] | Inhibition (%) HR (antagonism to the increase in heart rate induced by isoprenaline) [1] [%] | Inhibition (%) AR (antagonism to the depression by isoprenaline in increase of air-way resistance induced by histamine) [1] [%] | LD50 [2, 3] [mg/kg] | LD50 [2, 4] [mg/kg] | LD50 ([2]; iv, female rats, i.v., read-out: LD50 i.v.) [mg/kg] | LD50 ([2]; po, female rats, p.o., read-out: LD50 p.o.) [mg/kg]
COc1ccc(OCCNCC(O)COc2ccc(NC(N)=O)c3c2CCC(=O)N3)cc1 (centres unmarked) [compound 3] | 31.8 | 39.6 | 14.7 | 156 | 1340 | – | –
COc1ccc(CCNCC(O)COc2c(NC(C)=O)ccc3c2CCC(=O)N3)cc1OC (centres unmarked) [compound 6] | 11.3 | 37.2 | 12.6 | 160 | 1380 | – | –
Cc1ccc(S(=O)(=O)Nc2ccc(OCC(O)CNCCOc3ccc(C(N)=O)cc3)c3c2NC(=O)CC3)cc1 (centres unmarked) [compound 7] | 11.4 | 26.8 | 10.2 | 115 | 1120 | – | –
CCOC(=O)Nc1ccc(OCC(O)CNCCOc2ccc(C(N)=O)cc2)c2c1NC(=O)CC2 (centres unmarked) [compound 4] | 3.4 | 47.3 | 2.5 | 145 | 1210 | – | –
CC(NCC(O)COc1ccc(NC(=O)C2CCCCC2)c2c1CCC(=O)N2)c1ccccc1 (centres unmarked) [compound 5] | 42.4 | 53.3 | 23.2 | – | – | – | –
Cc1ccccc1N1CCN(CC(O)COc2ccc(NS(C)(=O)=O)c3c2CCC(=O)N3)CC1 (centres unmarked) [compound 8] | 6.4 | 21.0 | 7.1 | – | – | – | –
COc1ccccc1N1CCN(CC(O)COc2ccc(NC(C)=O)c3c2CCC(=O)N3)CC1 (centres unmarked) [compound 10] | 11.6 | 21.7 | 6.2 | 125 | 1170 | – | –
COc1ccc(CCNCC(O)COc2ccc(NC(C)=O)c3c2CCC(=O)N3)cc1OC (centres unmarked) [compound 2] | 25.5 | 30.2 | 10.8 | 158 | 1350 | 142 | 1230
COc1ccc(CCNCC(O)COc2cccc3c2CCC(=O)N3)cc1OC (centres unmarked) [compound 13, 5-(3,4-dimethoxyphenethylamino-2-hydroxy)propoxy-3,4-dihydrocarbostyril hydrochloride, reference compound] | 65.6 | 87.2 | 79.1 | – | – | – | –
NC(=O)Nc1ccc(OCC(O)CN2CCN(c3ccccc3Cl)CC2)c2c1NC(=O)CC2 (centres unmarked) [compound 9] | 15.3 | 23.6 | 8.9 | – | – | – | –
CC(C)(C)NCC(O)COc1cccc2c1CCC(=O)N2 (centres unmarked) [compound 11, 5-(3-t-butylamino-2-hydroxy)propoxy-3,4-dihydrocarbostyril hydrochloride, reference compound] | 100 | 100 | 100 | – | – | – | –
CC(=O)Nc1ccc2c(c1OCC(O)CNC(C)C)CCC(=O)N2 (centres unmarked) [compound 1] | 17.8 | 25.3 | 11.3 | – | – | – | –
